From US20250312433A1, “Process for Producing of Vaccine Formulations With Preservatives” (priority 2022, published 2025) come the findings set out here.

The nature of data set [1]: 2-PE concentration / solubility in Succinate Buffered Saline by RP-HPLC. To be noted: for Measured 2-PE concentration: RP-HPLC. In kind it is physicochemical. As to the method:
(§1) The objective of this study was to evaluate the dissolution time and solubility of 2-phenoxyethanol (2-PE). 2-PE dissolution and concentration were evaluated at the following concentrations in Succinate Buffered Saline (SBS) (5 mM succinate, 150 mM NaCl, pH 5.8); 11 g/L, 16.5 g/L, and 20 g/L.
(§2) Appropriate amount of 2-PE was weighed out in 400 ml beaker and appropriate amount of succinate buffered saline was added. Agitation speed was 300 rpm and solution temperature about 20° C. The time for complete dissolution based on visual observation was recorded. 2-PE concentration was measured by RP-HPLC.

Data set [2] can be described thus: Dissolution time of 2-PE in Succinate Buffered Saline (visual observation). To be noted: 300 rpm, about 20° C.; for 2-PE bulk dissolution Time: all dissolved besides up to approximately 5 small particles. In kind it is physicochemical. As to the method: as §1, §2

For the compound `OCCOc1ccccc1` [2-PE, 2-phenoxyethanol], in data set [1] (all concentrations (11, 16.5, 20 mg/mL) in SBS), the “measured 2-PE concentration below the target concentration” value is reported as “approximately 5%”. The solubility in data set [1] (aqueous buffer, thermodynamic from solid, succinate-buffered saline (pH 5.8) at 20° C.) is no less than 19.1 mg/mL. For the same compound, the entries for the “Percent Difference (measured − target)/target × 100” value in data set [1] (target 11.0 mg/mL in SBS), in data set [1] (target 16.5 mg/mL in SBS) and in data set [1] (target 20.0 mg/mL in SBS) were −4.5%, −5.5% and −4.5%, respectively. The “Measured 2-PE concentration” value in data set [1] (target 11.0 mg/mL in SBS) is listed as 10.5 mg/mL; in data set [1] (target 16.5 mg/mL in SBS), 15.6 mg/mL; in data set [1] (target 20.0 mg/mL in SBS) it was 19.1 mg/mL. In addition, the “2-PE bulk dissolution Time” value in data set [2] (11 mg/mL 2-PE in SBS (5 mM succinate, 150 mM NaCl, pH 5.8)) worked out at 7 min; in data set [2] (16.5 mg/mL 2-PE in SBS), 9 min; in data set [2] (20 mg/mL 2-PE in SBS), 15 min. Moreover, the “2-PE complete dissolution time” value in data set [2] (20 mg/mL 2-PE in SBS, all small particles dissolved) is reported as 35 min.
